From patent US12691124B2, “Methods of controlling and improving brain health” (ICAHN SCHOOL OF MEDICINE AT MOUNT SINAI, priority 2019, dated 2026)

Tests used:
[1] = test system: wild type and APP/PS1-21 mice; details: cited from earlier work
3xTg mouse model = details: prolonged JQ1 treatment; cited from earlier work
primary cortical neurons [2] = assay: Neuronal longevity in primary cortical neuron culture (LDH, propidium iodide, cleaved caspase 3); type: cell-based, mouse; details: PLX5622 together with IBET858
Excerpt: Primary Cortical Neuron Culture. Embryonic day 18 (E18) timed-pregnant female mice were anesthetized with CO2 and sacrificed by cervical dislocation. In a dissection hood, 24-26 embryos per experiment were collected through an incision of the mother's abdomen, taken out of the amniotic sacs and decapitated in ice cold Hank's Balanced Salt Solution (HBSS). Using fine scissors and forceps, brains were rapidly dissected and the cortex cleared from meninges and isolated under a dissection microscope. Cortices were collected in ice cold HBSS and kept on ice until all embryos had been dissected. In a tissue culture hood, HBSS was removed and the cortex tissue digested by 0.25% Trypsin-EDTA for 12 minutes at 37° C., followed by DNase1 treatment for 10 minutes at 37° C. The tissue was dissociated by serial trituration with a 25 ml serological pipette, followed by trituration with 10 ml and 5 ml serological pipettes. Cell suspension was washed once with DMEM medium, supplemented with 10% FBS and 1% penicillin/streptomycin and passed through a […] cell strainer before counted on a hemocytometer. Single cells were seeded on poly-D-lysine (0.1 mg ml-1) coated wells at a density of 1×10^6 cells per well on a 12-well plate. Cells were grown in Neurobasal medium, complemented with B27 supplement, N2 supplement, and 0.5 mM L-glutamine and maintained at 37° C. in 5% CO2 for 1 week. Cultures were treated with DMSO (0.2%), I-BET858 (1 μM, 0.2% DMSO), BDNF (50 ng/ml), or BDNF+I-BET858 for 2 and 12 h on day 7 in vitro. Cultures were washed with phosphate-buffered saline (PBS) on ice and processed for RNA isolation using TRIzol/Chloroform extraction.
LDH Assay. LDH activity was measured using the Pierce LDH Cytotoxicity Assay Kit. Culture media was incubated with an equal volume of LDH master mix and incubated for 30 minutes at room temperature in the dark. After, the same volume of stop reagent was added and the absorbance was measured at 490 and 680 nm. Maximum LDH measurements were obtained by adding lysis buffer to release the total amount of LDH in the sample. LDH release is calculated as a percent of the maximum.
Propidium Iodide Assay. Propidium iodide (1 mg/ml, Life Technologies #P3566) was added to each culture well at a final concentration of 0.5 μg/ml. Cultures were incubated for 30 minutes at 37 degrees then washed with PBS. Cells were then fixed with 4% paraformaldehyde in PBS for 15 minutes at room temperature. After fixation, cells were washed with PBS and then mounted using mounting media containing DAPI.
In order to understand the effect of chronic BET inhibition on neuronal survival, primary cortical mouse neurons were cultured in the presence or absence of the brain permeable BET inhibitor IBET858 (1 μM). To quantify cell death over time, the levels of lactate dehydrogenase (LDH) were measured in culture media which is presumably released during cell death as the membranes become permeable. […] The observed decrease in LDH activity after BET inhibition occurs in a dose-dependent manner. LDH activity, which is an indirect measure of cell death, may be affected by other factors such as changes in metabolism or expression of the LDH genes. Therefore in order to confirm these findings, propidium iodide (PI) staining was used to directly quantify the number of dead neurons over time. This membrane impermeable dye increases in fluorescence 20-30 fold after intercalating DNA265. […] To give context to the magnitude of this effect on survival, this experiment was repeated with a direct comparison to the mTOR inhibitor, rapamycin (20 nM).

CK-p25 mice = assay: p25 (CK-p25) mouse model of Alzheimer's disease; type: in vivo
microglia = assay: Microglia depletion by PLX in wild type mice; details: mouse, in vivo
Excerpt: These models both have strong inflammatory components to their pathology; however it is important to understand the mechanism by which IBET858 improves symptoms. If the pathology is driven by microglial-mediated inflammation, it was hypothesized that depleting microglia from the brain should prevent neuronal degeneration and memory deficits as well. Therefore a pharmacological approach was used to deplete microglia in vivo by inhibiting the colony stimulating factor receptor 1 (CSF1R) which is required for microglial survival and kills 99% of microglia in one week in wild type mice. Elmore et al., “Colony-Stimulating Factor 1 Receptor Signaling is Necessary for Microglia Viability, Unmasking a Microglia Progenitor Cell in the Adult Brain,” Neuron 82:380-397 (2014), which is hereby incorporated by reference in its entirety.
First, the PLX5622-mediated mediated reduction in microglia numbers is not sufficient to reduce inflammatory gene expression to the level that not only allows neuronal survival but also normal function. Second, while IBET858 clearly dampens microglia-mediated inflammation, its neuroprotective effect cannot be solely attributed to microglia and may in fact be a combinatorial effect on other cell types in the brain.

BET proteins = details: cited from earlier work
primary cortical neurons [3] = assay: Polar metabolite mass spectrometry in primary cortical neurons; type: cell-based, mouse; details: acute exposure 24 h, 50 nM
Procedure: Mass Spectrometry. Cell culture plates (2e6 cells per well n=7-8 per group) were washed with 75 mM Ammonium bicarbonate, pH 7.4, warmed to 37 degrees. Plates were quenched on liquid nitrogen for 10 seconds and then placed on dry ice. 1 ml of 70% Ethanol in MS-grade water was warmed to 75 degrees and added to each well. Plates were incubated in a 75 degree water bath for 3 minutes, shaking gently every minute. After 3 minutes, plates were placed on dry ice and once cooled, supernatants were lyophilized using the speed vacuum and stored at −80 degrees. Samples were shipped on dry ice to Cellzome who processed the samples for mass spectrometry and performed the initial analysis annotating metabolites. A semi-quantitative approach was used which determines the metabolite levels relative to a control rather than absolute concentrations. All detected ions were used for statistical analysis regardless of how many samples they were detected. This allows for the identification of low-abundant metabolites that may be present in only a subset of samples.
If IBET858 is indeed decreasing metabolism as indicated, comprehensive metabolic changes after BET inhibition should be observed. Therefore, an unbiased analysis of polar metabolites via mass spectrometry was employed (FIGS. 12A-12C). Accordingly, the levels of 100-150 unique metabolites are changed by chronic BET inhibition in primary cortical neurons.

Structure (SMILES): Cc1sc2c(c1C)C(c1ccc(Cl)cc1)=N[C@@H](CC(=O)OC(C)(C)C)c1nnc(C)n1-2 [JQ1]
- cognitive deficits in APP/PS1-21 mouse model ([1]; APP/PS1-21): rescued cognitive deficits
- memory, fear conditioning paradigm in wild type mice ([1]; wild type mice): enhanced memory
- level of phosphorylated tau (3xTg mouse model): decreased
- memory and learning deficits (3xTg mouse model): did not have any effect

Structure (SMILES): COc1ncc(F)cc1CNc1ccc(Cc2c[nH]c3ncc(C)cc23)c(F)n1 [PLX5622]
- neuronal longevity after IBET858 on pharmacological depletion of microglia (primary cortical neurons [2]): did not alter longevity
- number of microglia compared to wild-type controls (CK-p25 mice; CK-p25 mice treated with PLX): twice the number of microglia
- contextual recall (memory deficits) (CK-p25 mice; PLX5622): made contextual recall worse
- neuronal and synapse loss (CK-p25 mice; PLX5622): prevented neuronal and synapse loss
- microglia after PLX in wild type mice (microglia): fully depleted

Structure (SMILES): Oc1ccc(C=Cc2cc(O)cc(O)c2)cc1 [Resveratrol, resveratrol]
- inhibition of BET proteins (BET proteins): weakly inhibit

Structure (SMILES): C=C(C)[C@H]1Cc2c(ccc3c2O[C@@H]2COc4cc(OC)c(OC)cc4[C@@H]2C3=O)O1 [Rotenone, reference compound]
- metabolites changed (primary cortical neurons [3]): 300-500 metabolites
